Laboratory results as given in patent publication US11707503B2, “Modulators of complement activity” (Ra Pharmaceuticals, Inc., priority 2015, dated 2023).
pIC50: −log10 of the molar value. “Also recorded” adds a separate entry of the source. Starred links: 1 amine or outer side, 2 acyl side, 3 side chain; linkers in the order of their positions; H or OH if unused. Positions of bridges follow the written chain, without caps; N, C: chain ends. Non-standard residues stand in square brackets, D forms with d. Residues, ends and D or L forms follow the SMILES beside them. Trp(7-aza) = N[C@@H](Cc1c[nH]c2ncccc12)C(=O)O; Tiq1c(1S) = O=C(O)[C@H]1NCCc2ccccc21; mXylylene = c1cc(C[*:1])cc(C[*:2])c1; pXylylene = c1cc(C[*:2])ccc1C[*:1]; Phg = N[C@H](C(=O)O)c1ccccc1; Tle = CC(C)(C)[C@H](N)C(=O)O; NMeS = CN[C@@H](CO)C(=O)O; hCys = N[C@@H](CCS)C(=O)O; Nva = CCC[C@H](N)C(=O)O

Legend:
C5 [1] = biological target: T1, C5 (Homo sapiens, UniProt P01031); assay: Competitive fluorescence polarization (FP) binding assay with probe R3076; parameters: purchased Complement Technology, Tyler, Tex
T1 sequence (P01031 678-1676 limits assumed): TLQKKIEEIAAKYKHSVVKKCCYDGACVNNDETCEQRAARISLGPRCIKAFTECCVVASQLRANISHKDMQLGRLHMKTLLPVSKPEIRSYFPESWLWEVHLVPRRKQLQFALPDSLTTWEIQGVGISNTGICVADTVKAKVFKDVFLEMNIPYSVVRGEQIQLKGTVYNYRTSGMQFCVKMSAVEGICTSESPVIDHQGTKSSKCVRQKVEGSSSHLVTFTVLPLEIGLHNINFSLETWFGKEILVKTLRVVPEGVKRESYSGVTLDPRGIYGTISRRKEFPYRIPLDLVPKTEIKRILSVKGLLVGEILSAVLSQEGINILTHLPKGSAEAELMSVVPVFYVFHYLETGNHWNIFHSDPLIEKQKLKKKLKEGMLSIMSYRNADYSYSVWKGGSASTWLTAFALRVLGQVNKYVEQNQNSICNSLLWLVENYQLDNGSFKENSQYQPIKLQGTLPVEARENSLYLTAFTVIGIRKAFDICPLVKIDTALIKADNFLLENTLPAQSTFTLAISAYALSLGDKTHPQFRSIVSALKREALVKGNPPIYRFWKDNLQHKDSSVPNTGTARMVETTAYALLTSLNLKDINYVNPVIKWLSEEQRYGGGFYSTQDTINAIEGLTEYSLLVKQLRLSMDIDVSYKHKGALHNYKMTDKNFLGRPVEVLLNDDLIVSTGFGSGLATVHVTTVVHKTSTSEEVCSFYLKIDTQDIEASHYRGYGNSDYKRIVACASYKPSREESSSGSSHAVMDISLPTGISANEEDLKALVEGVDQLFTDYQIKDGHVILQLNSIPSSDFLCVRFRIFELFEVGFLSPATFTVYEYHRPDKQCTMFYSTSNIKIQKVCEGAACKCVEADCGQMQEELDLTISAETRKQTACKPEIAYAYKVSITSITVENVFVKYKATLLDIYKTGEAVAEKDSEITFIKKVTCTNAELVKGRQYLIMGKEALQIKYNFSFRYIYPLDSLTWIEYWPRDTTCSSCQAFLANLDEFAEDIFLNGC
T1 sequence (P01031 19-673 limits assumed): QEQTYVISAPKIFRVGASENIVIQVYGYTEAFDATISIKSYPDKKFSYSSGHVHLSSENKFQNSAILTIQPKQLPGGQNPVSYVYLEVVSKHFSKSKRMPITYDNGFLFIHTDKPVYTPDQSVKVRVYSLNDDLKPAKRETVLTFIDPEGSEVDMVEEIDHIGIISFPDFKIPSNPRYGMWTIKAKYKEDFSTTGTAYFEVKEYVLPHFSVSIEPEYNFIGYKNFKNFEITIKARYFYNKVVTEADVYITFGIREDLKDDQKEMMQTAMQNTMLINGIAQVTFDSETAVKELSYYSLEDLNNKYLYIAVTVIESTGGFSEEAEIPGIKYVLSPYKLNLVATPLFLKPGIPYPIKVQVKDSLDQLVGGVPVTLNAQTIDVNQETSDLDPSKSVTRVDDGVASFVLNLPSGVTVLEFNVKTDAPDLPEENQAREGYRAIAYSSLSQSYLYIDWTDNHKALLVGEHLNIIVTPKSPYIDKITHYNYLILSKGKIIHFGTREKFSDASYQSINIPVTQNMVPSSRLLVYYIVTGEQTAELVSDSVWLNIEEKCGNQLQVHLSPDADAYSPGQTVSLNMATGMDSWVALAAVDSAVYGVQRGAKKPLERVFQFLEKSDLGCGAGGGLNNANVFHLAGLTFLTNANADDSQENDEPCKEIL
Method: FP was used for screening competitive polypeptide inhibitors of the C5 protein. […] The BODIPY-TMR dye attached to the C-terminal lysine of the protein and the subsequent labeled probe was purified by HPLC.
Human C5 protein was diluted to 200 nM in assay buffer, composed of TBS (EMD Millipore, Billerica, Mass.)+0.005% Triton-X (Sigma, Saint Louis, Mo.). 10 μl of assay buffer was added to all wells of a black, non-binding, 384-well assay plate (Greiner, Monroe, N.C.) and 10 μl of diluted C5 protein stock was added to experimental and designated control wells.
Probe R3076 (SEQ ID NO: 40) was diluted 1 to 10 in DMSO (Life Technologies, Grand Island, N.Y.) and 30 μl of that stock was diluted in 3 ml of assay buffer to yield a 100 nM stock. 10 μl of this working stock was then added to each well in the assay plate. The assay plate was incubated at room temperature, protected from light, for 20 minutes to allow binding to reach equilibrium.
Test articles listed in Table 7 were subsequently diluted in DMSO then assay buffer, comprising 10 2-fold dilutions and were then added to the assay plate in triplicate, rapidly. The assay plate was then incubated in the Paradigm (Molecular Devices, Sunnyvale, Calif.) plate reader for 60 minutes at 25° C.
After incubation for 60 minutes, the plate was read using the Paradigm FP protocol (Molecular Devices, Sunnyvale, Calif.) and raw polarization values were imported into Graphpad Prism.

C5 [2] = biological target: T1, C5; assay: Human hemolysis assay (RBC lysis assay using complete human sera); assay type: cell-based; parameters: with complete human sera (Complement Technology, Tyler Tex.) and polypeptides; tissue Complement Technology, Tyler Tex; host or cells: complete human serum; conditions: for pIC50: antibody-sensitized sheep erythrocytes, complete human sera; for change in ability to inhibit red blood cell lysis in words: relative to parent polypeptide
Method: Polypeptides listed in Table 3, as well as their optimized derivatives (see Table 4) were assessed for inhibitor activity using a red blood cell hemolysis assay. […] Human sera was rapidly thawed at 37° C. and then stored on ice until diluted into GVB++. Ten 6-fold serial dilutions of polypeptides (10 mM stock, DMSO) were performed in DMSO and then added to buffer. 50 μl of each polypeptide dilution was combined with sera and 100 μl of cells in individual wells of a 96-well tissue culture-treated clear microtitre plate (USA Scientific, Ocala, Fla.) and resuspended by pipetting. Samples were incubated at 37° C. for one hour. […] Data was fit with a log-logit formula producing a dose-response curve and IC50. As used herein, the term “IC50” refers to the half maximal inhibitory concentration, a value used to indicate the amount of the inhibitor needed to reduce a given reaction or process by half.
The human constant light chain kappa and IgG2 constant heavy chain sequences were used for the constants regions of the antibody. This antibody was expressed from human embryonic kidney cells (HEK293) and purified by Protein A affinity chromatography. […] Human sera was rapidly thawed at 37° C. and then stored on ice until diluted into GVB++. Ten 6-fold serial dilutions of each compound (10 mM stock, DMSO) were performed in DMSO and then added to buffer. 50 μl of each compound dilution was combined with sera and 100 μl of cells in individual wells of a 96-well tissue culture-treated clear microtitre plate (USA Scientific, Ocala, Fla.) and resuspended by pipetting. Samples were incubated at 37° C. for one hour. […] Data was fit with a log-logit formula producing a dose-response curve and IC50 (see FIG. 11A).

Structure (SMILES)	competition for / affinity for C5 in words (C5 [1])	pIC50 (C5 [2])	also measured
CCC[C@H](NC(C)=O)C(=O)N[C@H]1CSCc2cccc(c2)CSC[C@@H](C(=O)N[C@@H](CCC)C(=O)N2CCC[C@H]2C(N)=O)NC(=O)[C@H](Cc2c[nH]cn2)NC(=O)[C@H](CO)N(C)C(=O)[C@H](Cc2ccc(O)cc2)NC(=O)[C@H](CCC(=O)O)NC(=O)[C@H](Cc2c[nH]c3ncccc23)NC(=O)[C@H]([C@@H](C)O)NC(=O)[C@H](c2ccccc2)NC1=O [Compound R3011, [mXylyl(2,10)]Ac-Nvl-C-Phg-T-azaTrp-E-Y-(N—Me)S-H-C-Nvl-P-NH2] (Ac-[Nva]C[Phg]T[Trp(7-aza)]EY[NMeS]HC[Nva]P-NH2; linker 2-10 via mXylylene)	relatively strong affinity	–	–
CC(=O)N[C@H]1CSCc2cccc(c2)CSC[C@@H](C(N)=O)NC(=O)[C@H](Cc2c[nH]cn2)NC(=O)[C@H](CO)N(C)C(=O)[C@H](Cc2ccc(O)cc2)NC(=O)[C@H](CCC(=O)O)NC(=O)[C@H](Cc2c[nH]c3ncccc23)NC(=O)[C@H]([C@@H](C)O)NC(=O)[C@H](c2ccccc2)NC1=O [Compound R3015, [mXylyl(1,9)]Ac-C-Phg-T-azaTrp-E-Y-(N—Me)S-H-C-NH2] (Ac-C[Phg]T[Trp(7-aza)]EY[NMeS]HC-NH2; linker 1-9 via mXylylene)	–	< 5.40	–
CCC[C@H](NC(=O)[C@H](Cc1ccc(O)cc1)NC(=O)[C@H](CC(N)=O)NC(=O)[C@H](CCC)NC(=O)[C@H](CCC(=O)O)NC(=O)[C@@H](NC(=O)[C@H](Cc1c[nH]c2ncccc12)NC(=O)[C@@H](NC(=O)[C@H](CS)NC(=O)[C@H](Cc1ccc(O)cc1)NC(=O)[C@@H]1CCCN1C(=O)[C@H](Cc1ccc(O)cc1)NC(C)=O)c1ccccc1)C(C)(C)C)C(=O)N[C@@H](CCC(=O)O)C(N)=O [Compound R3023, Ac-Y-P-Y-C-Phg-azaTrp-Tbg-E-Nvl-N-Y-Nvl-E-NH2] (Ac-YPYC[Phg][Trp(7-aza)][Tle]E[Nva]NY[Nva]E-NH2)	no activity at the highest concentration tested; also recorded: not detected at the highest concentration tested; also recorded: no affinity	–	–
CCC[C@H](NC(=O)[C@@H]1CCCN1C(=O)[C@H](CCC)NC(=O)[C@@H]1CSCc2cccc(c2)CSC[C@H](NC(C)=O)C(=O)N[C@@H](c2ccccc2)C(=O)N[C@@H]([C@@H](C)O)C(=O)N[C@@H](Cc2c[nH]c3ncccc23)C(=O)N[C@@H](CCC(=O)O)C(=O)N[C@@H](Cc2ccc(O)cc2)C(=O)N(C)[C@@H](CO)C(=O)N[C@@H](Cc2c[nH]cn2)C(=O)N1)C(N)=O [Compound R3014, [mXylyl(1,9)]Ac-C-Phg-T-azaTrp-E-Y-(N—Me)S-H-C-Nvl-P-Nvl-NH2] (Ac-C[Phg]T[Trp(7-aza)]EY[NMeS]HC[Nva]P[Nva]-NH2; linker 1-9 via mXylylene)	weak affinity	–	–
CC(=O)N[C@H]1CSCc2cccc(c2)CSC[C@@H](C(=O)N[C@@H](Cc2c[nH]c3ccccc23)C(=O)N[C@@H](CCC(=O)O)C(=O)N[C@@H](Cc2ccccc2)C(N)=O)NC(=O)[C@H](Cc2ccccc2)NC(=O)[C@H](CCCNC(=N)N)NC(=O)[C@H](CCC(=O)O)NC(=O)[C@H](C(C)C)NC1=O [Compound R3125, [mXylyl(1,6)]Ac-C-V-E-R-F-C-W-E-F-NH2] (Ac-CVERFCWEF-NH2; linker 1-6 via mXylylene)	–	–	change in ability to inhibit red blood cell lysis in words (C5 [2]): decrease in the ability
CC(=O)N[C@H]1CSCc2cccc(c2)CSC[C@@H](C(=O)N[C@@H](CC(=O)O)C(=O)N[C@H](C(=O)N[C@@H](Cc2ccc(O)cc2)C(=O)N[C@@H](Cc2c[nH]c3ccccc23)C(=O)N[C@@H](CCC(=O)O)C(=O)N[C@@H](Cc2ccccc2)C(N)=O)C(C)C)NC(=O)[C@H](Cc2ccccc2)NC(=O)[C@H](CCCNC(=N)N)NC(=O)[C@H](CCC(=O)O)NC(=O)[C@H](C(C)C)NC1=O [Compound R3048, [mXylyl(1,6)]Ac-C-V-E-R-F-C-D-V-Y-W-E-F-NH2] (Ac-CVERFCDVYWEF-NH2; linker 1-6 via mXylylene)	–	–	change in ability to inhibit red blood cell lysis in words (C5 [2]): increased the ability
CCC[C@H](NC(=O)[C@@H]1CSCc2cccc(c2)CSC[C@H](NC(=O)[C@H](CCC)NC(C)=O)C(=O)N2CCc3ccccc3[C@H]2C(=O)N[C@@H]([C@@H](C)O)C(=O)N[C@@H](Cc2c[nH]c3ncccc23)C(=O)N[C@@H](CCC(=O)O)C(=O)N[C@@H](Cc2ccc(O)cc2)C(=O)N(C)[C@@H](CO)C(=O)N[C@@H](Cc2c[nH]cn2)C(=O)N1)C(N)=O [Compound R3122, [mXylyl(2,10)]Ac-Nvl-C-Tiq-T-azaTrp-E-Y-(N—Me)S-H-C-Nvl-NH2] (Ac-[Nva]C[Tiq1c(1S)]T[Trp(7-aza)]EY[NMeS]HC[Nva]-NH2; linker 2-10 via mXylylene)	–	< 4.30	–
CC(=O)N[C@H]1CSCc2cccc(c2)CSC[C@@H](C(=O)N[C@H](C(=O)N[C@@H](Cc2ccc(O)cc2)C(=O)N[C@@H](Cc2c[nH]c3ccccc23)C(=O)N[C@@H](CCC(=O)O)C(=O)N[C@@H](Cc2ccccc2)C(N)=O)C(C)C)NC(=O)[C@H](Cc2ccccc2)NC(=O)[C@H](CCCNC(=N)N)NC(=O)[C@H](CCC(=O)O)NC(=O)[C@H](C(C)C)NC1=O [Compound R3124, [mXylyl(1,6)]Ac-C-V-E-R-F-C-V-Y-W-E-F-NH2] (Ac-CVERFCVYWEF-NH2; linker 1-6 via mXylylene)	–	–	change in ability to inhibit red blood cell lysis in words (C5 [2]): decrease in the ability
CCC[C@H](NC(C)=O)C(=O)N[C@@H](CS)C(=O)N[C@@H](Cc1ccc(O)cc1)C(=O)N[C@@H](CCC(=O)O)C(=O)N[C@@H](CC(N)=O)C(=O)N[C@H](C(=O)N[C@@H](Cc1ccc(O)cc1)C(=O)N[C@@H](Cc1c[nH]c2ncccc12)C(=O)N[C@@H](CCC(=O)O)C(=O)N[C@@H](Cc1ccc(O)cc1)C(=O)N1CCC[C@H]1C(=O)N[C@H](C(=O)N1CCC[C@H]1C(N)=O)c1ccccc1)C(C)(C)C [Compound R3003, Ac-Nvl-C-Y-E-N-Tbg-Y-azaTrp-E-Y-P-Phg-P-NH2] (Ac-[Nva]CYEN[Tle]Y[Trp(7-aza)]EYP[Phg]P-NH2)	most potent	–	–
CCC[C@H](NC(=O)[C@@H](NC(=O)[C@@H]1CCCN1C(=O)[C@H](Cc1ccc(O)cc1)NC(=O)[C@H](CCC(=O)O)NC(=O)[C@H](Cc1c[nH]c2ncccc12)NC(=O)[C@H](Cc1ccc(O)cc1)NC(=O)[C@@H](NC(=O)[C@H](CC(=O)O)NC(=O)[C@@H]1CSCc2cccc(c2)CSC[C@H](NC(C)=O)C(=O)N[C@@H](C(C)C)C(=O)N[C@@H](C)C(=O)N[C@@H](CCCNC(=N)N)C(=O)N[C@@H](Cc2ccccc2)C(=O)N1)C(C)(C)C)c1ccccc1)C(N)=O [Compound R3150, [mXylyl(1,6)]Ac-C-V-A-R-F-C-D-Tbg-Y-azaTrp-E-Y-P-Phg-Nvl-NH2] (Ac-CVARFCD[Tle]Y[Trp(7-aza)]EYP[Phg][Nva]-NH2; linker 1-6 via mXylylene)	–	7.49	–
CSCC[C@H](N)C(=O)N[C@H]1CSCc2cccc(c2)CSC[C@@H](C(=O)N[C@@H](CC(=O)O)C(=O)N[C@H](C(=O)N[C@@H](Cc2ccc(O)cc2)C(=O)N[C@@H](Cc2c[nH]c3ccccc23)C(=O)N[C@@H](CCC(=O)O)C(N)=O)C(C)C)NC(=O)[C@H](Cc2ccccc2)NC(=O)[C@H](CCCNC(=N)N)NC(=O)[C@H](CCC(=O)O)NC(=O)[C@H](C(C)C)NC1=O [Compound R3043, [mXylyl(2,7)]M-C-V-E-R-F-C-D-V-Y-W-E-NH2] (H-MCVERFCDVYWE-NH2; linker 2-7 via mXylylene)	weak affinity	–	–
CCC[C@H](NC(=O)[C@@H]1CCSCc2ccc(cc2)CSCC[C@H](NC(=O)[C@H](CCC)NC(C)=O)C(=O)N[C@@H](c2ccccc2)C(=O)N[C@@H]([C@@H](C)O)C(=O)N[C@@H](Cc2c[nH]c3ncccc23)C(=O)N[C@@H](CCC(=O)O)C(=O)N[C@@H](Cc2ccc(O)cc2)C(=O)N(C)[C@@H](CO)C(=O)N[C@@H](Cc2c[nH]cn2)C(=O)N1)C(N)=O [Compound R3108, [pXylyl(2,10)]Ac-Nvl-homoC-Phg-T-azaTrp-E-Y-(N—Me)S-H-homoC-Nvl-NH2] (Ac-[Nva][hCys][Phg]T[Trp(7-aza)]EY[NMeS]H[hCys][Nva]-NH2; linker 2-10 via pXylylene)	–	< 4.12	–
